Results from patent US11141413B2, “Method of treating renal cell carcinoma using N-(4-(6,7-dimethoxyquinolin-4-yloxy)phenyl)-N′-(4-fluorophenyl)cyclopropane-1,1-dicarboxamide, (2S)-hydroxybutanedioate” (Exelixis, Inc., priority 2016, dated 2021).

Test system: patients with advanced renal cell carcinoma
Settings: in vivo
Procedure: Treatment modifications, including interruptions and dose reductions, were allowed to manage adverse events. […] Patients were allowed to continue study treatment beyond radiographic progression at the discretion of the investigator. On-study crossover between treatment groups was not permitted. Safety evaluations, including physical examination, vital signs, and laboratory assessments, were conducted every 2 weeks for the first 8 weeks and then every 4 weeks thereafter. ECG assessments were performed every 4 weeks for the first 8 weeks and then every 12 weeks. A safety follow-up visit was scheduled 30 days after treatment discontinuation. Adverse events were assessed by investigators and graded according to CTCAE version 4.0.
Safety analyses were limited to patients who received any amount of study treatment.

## CO[C@H]1C[C@@H]2CC[C@@H](C)[C@@](O)(O2)C(=O)C(=O)N2CCCC[C@H]2C(=O)O[C@H]([C@H](C)C[C@@H]2CC[C@@H](OCCO)[C@H](OC)C2)CC(=O)[C@H](C)/C=C(\C)[C@@H](O)[C@@H](OC)C(=O)[C@H](C)C[C@H](C)/C=C/C=C/C=C/1C [everolimus]
human
  Grade 3 and 4 adverse events: Diarrhea, %: 3%
  Grade 3 or 4 Adverse Events: Diarrhea, %: (3) %
  Grade 3 or 4 Adverse Events: Hypokalaemia, %: (2) %
  Grade 3 or 4 Adverse Events: PPES, %: (1) %
  Grade 3 or 4 adverse events: 193 (60%) n (%)
  Grade 5 adverse events regardless of causality: 7.8%
  Headache, All Grades: 12%
  Headache, Grade 1-2: 42 (13) n (%)
  Headache, Grade 3: 1 (<1) n (%)
  Headache, Grade 3-4: <1%
  Headache, Grade 4: 0 n (%)
  Hemoglobin decreased, All Grades: 71%
  Hemoglobin decreased, Grade 3-4: 17%
  Hyperglycemia, All Grades: 59%
  Hyperglycemia, Grade 1-2: 46 (14) n (%)
  Hyperglycemia, Grade 3: 16 (5) n (%)
  Hyperglycemia, Grade 3-4: 8%
  Hyperglycemia, Grade 4: 0 n (%)
  Hyperglycemia, grade 3 or 4: 16 [5%] n [%]
  Hypertension, All Grades: 8%
  Hypertension, Grade 1-2: 14 (4) n (%)
  Hypertension, Grade 3: 12 (4) n (%)
  Hypertension, Grade 3-4: 3%
  Hypertension, Grade 4: 0 n (%)
  Hypertriglyceridemia, Grade 1-2: 31 (10) n (%)
  Hypertriglyceridemia, Grade 3: 7 (2) n (%)
  Hypertriglyceridemia, Grade 4: 3 (<1) n (%)
  Hypoalbuminemia, All Grades: 28%
  Hypoalbuminemia, Grade 3-4: <1%
  Hypomagnesaemia, Grade 1-2: 5 (2) n (%)
  Hypomagnesaemia, Grade 3: 0 n (%)
  Hypomagnesaemia, Grade 4: 0 n (%)
  Hypomagnesemia, All Grades: 4%
  Hypomagnesemia, Grade 3-4: <1%
  Hyponatremia, All Grades: 26%
  Hyponatremia, Grade 3-4: 6%
  Hypophosphatemia, All Grades: 36%
  Hypophosphatemia, Grade 3-4: 5%
  Hypothyroidism, All Grades: <1%
  Hypothyroidism, Grade 1-2: 1 (<1) n (%)
  Hypothyroidism, Grade 3: 1 (<1) n (%)
  Hypothyroidism, Grade 3-4: <1%
  Hypothyroidism, Grade 4: 0 n (%)
  Incidence of Grade ≥3 hemorrhagic events: 1.6%
  Insomnia, Grade 1-2: 33 (10) n (%)
  Insomnia, Grade 3: 1 (<1) n (%)
  Insomnia, Grade 4: 0 n (%)
  Lymphocytes decreased, All Grades: 39%
  Lymphocytes decreased, Grade 3-4: 12%
  Mucosal inflammation, All Grades: 23%
  Mucosal inflammation, Grade 1-2: 64 (20) n (%)
  Mucosal inflammation, Grade 3: 10 (3) n (%)
  Mucosal inflammation, Grade 3-4: 3%
  Mucosal inflammation, Grade 4: 1 (<1) n (%)
  Muscle spasms, All Grades: 5%
  Muscle spasms, Grade 1-2: 17 (5) n (%)
  Muscle spasms, Grade 3: 0 n (%)
  Muscle spasms, Grade 3-4: 0%
  Muscle spasms, Grade 4: 0 n (%)
  Nausea, All Grades: 28%
  Nausea, Grade 1-2: 92 (29) n (%)
  Nausea, Grade 3: 1 (<1) n (%)
  Nausea, Grade 3-4: <1%
  Nausea, Grade 4: 0 n (%)
  Overall incidence of adverse events regardless of causality: > 99%
  Pain in extremity, All Grades: 8%
  Pain in extremity, Grade 1-2: 31 (10) n (%)
  Pain in extremity, Grade 3: 1 (<1) n (%)
  Pain in extremity, Grade 3-4: <1%
  Pain in extremity, Grade 4: 0 n (%)
  Palmar-plantar erythrodysaesthesia syndrome, Grade 1-2: 16 (5) n (%)
  Palmar-plantar erythrodysaesthesia syndrome, Grade 3: 3 (<1) n (%)
  Palmar-plantar erythrodysaesthesia syndrome, Grade 4: 0 n (%)
  Palmar-plantar erythrodysesthesia syndrome, All Grades: 6%
  Palmar-plantar erythrodysesthesia syndrome, Grade 3-4: <1%
  Patients with dose reduced: 24%
  Patients with dose reductions: 25%
  Platelets decreased, All Grades: 27%
  Platelets decreased, Grade 3-4: <1%
  Proteinuria, All Grades: 9%
  Proteinuria, Grade 1-2: 28 (9) n (%)
  Proteinuria, Grade 3: 2 (<1) n (%)
  Proteinuria, Grade 3-4: <1%
  Proteinuria, Grade 4: 0 n (%)
  Pruritus, Grade 1-2: 48 (15) n (%)
  Pruritus, Grade 3: 1 (<1) n (%)
  Pruritus, Grade 4: 0 n (%)
  Pulmonary embolism: 0.3%
  Pyrexia, Grade 1-2: 57 (18) n (%)
  Pyrexia, Grade 3: 2 (<1) n (%)
  Pyrexia, Grade 4: 0 n (%)
  Rash, All Grades: 43%
  Rash, Grade 1-2: 92 (29) n (%)
  Rash, Grade 3: 2 (<1) n (%)
  Rash, Grade 3-4: <1%
  Rash, Grade 4: 0 n (%)
  Serious adverse events ≥grade 3: 129 (40%) n (%)
  Stomatitis, All Grades: 24%
  Stomatitis, Grade 1-2: 71 (22) n (%)
  Stomatitis, Grade 3: 7 (2) n (%)
  Stomatitis, Grade 3-4: 2%
  Stomatitis, Grade 4: 0 n (%)
  Study treatment discontinuation due to diarrhea: 0.9%
  Treatment discontinuation due to an adverse event not related to disease progression: 10%
  Treatment-emergent hypertension: 7.1%
  Treatment-emergent hypertension, Grade ≥3: 3.1%
  Triglycerides increased, All Grades: 73%
  Triglycerides increased, Grade 3-4: 13%
  Venous thromboembolism: 2.5%
  Vomiting, All Grades: 14%
  Vomiting, Grade 1-2: 44 (14) n (%)
  Vomiting, Grade 3: 3 (<1) n (%)
  Vomiting, Grade 3-4: <1%
  Vomiting, Grade 4: 0 n (%)
  Weight decreased, All Grades: 12%
  Weight decreased, Grade 1-2: 42(13) n (%)
  Weight decreased, Grade 3: 0 n (%)
  Weight decreased, Grade 3-4: 0%
  Weight decreased, Grade 4: 0 n (%)
  White blood cells decreased, All Grades: 31%
  White blood cells decreased, Grade 3-4: <1%
  Grade 5 adverse events assessed as treatment-related: two
